We go through two compounds from article PMC7111470 (European Journal of Medicinal Chemistry, 2011).

Assay [1] addresses T1, BCoV 9-SOAE (haemagglutinin-esterase on whole virus) (Bovine coronavirus Mebus, UniProt P15776). The assay is described as follows: pNPA hydrolysis, A400. Format: biochemical. The conditions noted are these: read-out: BCoV / 3.
In assay [2] the target is T1, BCoV 9-SOAE (haemagglutinin-esterase on whole virus). The assay is described as follows: pNPA hydrolysis, A400. Format: biochemical.

T1 sequence (P15776 17-424): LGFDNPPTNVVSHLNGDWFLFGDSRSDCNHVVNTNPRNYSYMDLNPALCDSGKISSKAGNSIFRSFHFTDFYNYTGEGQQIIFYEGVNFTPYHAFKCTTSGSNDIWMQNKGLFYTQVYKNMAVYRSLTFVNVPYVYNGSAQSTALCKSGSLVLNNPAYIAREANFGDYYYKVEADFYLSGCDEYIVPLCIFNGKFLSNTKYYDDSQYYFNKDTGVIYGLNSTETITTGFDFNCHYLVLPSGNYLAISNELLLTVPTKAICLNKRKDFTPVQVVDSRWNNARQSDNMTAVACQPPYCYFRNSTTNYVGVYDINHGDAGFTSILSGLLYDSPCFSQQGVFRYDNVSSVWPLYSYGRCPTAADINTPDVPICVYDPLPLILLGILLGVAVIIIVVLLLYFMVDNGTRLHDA

Take `C=CCO[C@]1(C(=O)O)C[C@H](O)[C@@H](NC(C)=O)[C@H]([C@H](O)[C@H](O)COC)O1` [compound 3, Ammonium (allyl 5-acetamido-9-O-methyl-3,5-dideoxy-d-glycero-α-d-galacto-2-nonulopyranosidonate)]: the inhibition at 2000 µM in assay [1] is under 0%.
For `CC(=O)Oc1ccc([N+](=O)[O-])cc1` [p-nitrophenyl acetate], the “pNPA hydrolysis, A400” value in assay [2] was “esterase activities of all viruses and recombinant proteins were determined with p-nitrophenyl acetate (pNPA)”.
